# From US20250230154A1, “COMPOUND HAVING SHP2 PROTEIN DEGRADING ACTIVITY, AND MEDICAL USES THEREOF” (UBIX THERAPEUTICS, INC., priority 2021, published 2025)
# Key:
# SHP2 protein [1] = target: T1, SHP2 protein (Homo sapiens, UniProt Q06124); experiment: Measurement of SHP2 protein degradation in KYSE-520 cells (western blotting); assay type: cell-based; design: endogenous in cells; conditions: 24 hours
# T1 sequence (Q06124 1-593): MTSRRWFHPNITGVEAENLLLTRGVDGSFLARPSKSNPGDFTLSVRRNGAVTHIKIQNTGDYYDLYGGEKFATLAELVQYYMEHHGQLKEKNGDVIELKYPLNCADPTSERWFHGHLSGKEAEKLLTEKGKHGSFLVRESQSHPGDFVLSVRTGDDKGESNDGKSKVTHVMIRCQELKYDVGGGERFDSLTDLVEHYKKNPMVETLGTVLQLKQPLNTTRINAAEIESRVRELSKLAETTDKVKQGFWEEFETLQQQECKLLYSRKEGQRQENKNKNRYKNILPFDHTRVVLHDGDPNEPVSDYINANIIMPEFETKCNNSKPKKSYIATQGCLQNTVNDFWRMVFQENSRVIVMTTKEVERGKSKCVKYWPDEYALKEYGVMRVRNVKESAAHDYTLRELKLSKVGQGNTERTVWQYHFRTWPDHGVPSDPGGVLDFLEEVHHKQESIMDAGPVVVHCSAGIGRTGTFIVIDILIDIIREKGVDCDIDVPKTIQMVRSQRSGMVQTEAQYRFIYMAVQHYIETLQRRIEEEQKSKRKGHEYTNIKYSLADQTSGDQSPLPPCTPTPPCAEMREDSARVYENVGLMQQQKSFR
# Procedure: Experimental Example 1: Measurement of SHP2 Protein Degradation in KYSE-520 Cells
# KYSE-520 cells were treated with the synthesized Example compound, and the amount of SHP2 protein present in the cells was measured using western blotting detection. The protocol of the experiment conducted using KYSE-520 cells was as follows:
# [Culture] KYSE-520 cells resuspended in RPMI1640 MEDIUM (Hyclone, SH30027.01) containing 5% FBS (Hyclone, SV30207.02) and 1% Penicillin-streptomycin (Welgene, LS 202-02) were seeded at a density of 2.5×10^5/well in a 6-well plate in an amount of 2 ml each and incubated for 2 days.
# [Compound treatment] […] After 24 hours, cells were harvested. For the negative control group, DMSO diluted 1/10 to the media (3 mL DMSO+27 mL media) was added.
# [Cell Lysis and Protein Quantification] Lysis buffer was prepared as follows: […] of RIPA buffer (Biosesang, RC2038-050-00)+0.5 mM PMSF (SIGMA, P7626)+1× Protease/Phosphatase Inhibitor (Cell signaling, 5872S) per well was added and placed on ice for 30 minutes (vortexing at 0 and 30 minutes, respectively). After sonication process (10 seconds pulse, 30 seconds rest, 5 cycles, 70% amplification), centrifugation (15000 g, 15 min, 4° C.) was performed, and then only the supernatant was taken and transferred to a new microtube. The sample was diluted ¼ with RIPA buffer in a 96-well plate, and mixed with A:B=50:1 of the BCA Protein Assay Kit (iNtRON, 21071). […] each of the mixture was left at 37° C. for 30 minutes, and cooled for 10 minutes. Then, absorbance was measured at 562 nm with the SYNERGY H1 microplate reader from BioTek. After making a sample by quantifying the protein with the measured value, boiling was performed at 70° C. for 10 minutes. At this time, the sample buffer used was a mixture of NuPAGE or Bolt 4× sample buffer (Invitrogen) and each 10× sample reducing agent according to the gel to be used, and RIPA buffer was used for protein dilution.
# [Western blotting detection method] The same amount of sample was loaded on NuPAGE or Bolt Bis-tris 4-12% gradient gel and run (200 V, 35 minutes). It was transferred to 0.2 mm NC membrane with Trans-blot Turbo (BIO-RAD) (1.3 A constant, 25 V limit, 15 minutes). Blocking was performed at room temperature for 1 hour with Skim milk or Intercept Blocking Buffer (LI-COR, 927-60001):0.1% TBST=1:1. Anti SHPTP2 Mouse (1:500 in 5% Skim milk/TBST, size: 70 kDa, Santacruz sc-7384) was incubated overnight at 4° C., and Anti GAPDH Rabbit (1:2,000 in 5% BSA/0.2% TBST, size: 37 kDa, CST #2118) was incubated at room temperature for 1 hour 30 minutes or 3 hours. It was washed 3 times for 5 minutes each with 0.2% TBST washing buffer. Secondary antibody Anti-Rabbit IgG (1:5,000 in 5% Skim milk/0.2% TBST, CST), and IRDye® 680RD Goat anti-Rabbit IgG Secondary Antibody (1:10,000 in 5% BSA/0.2% TBST, LI-COR 926-68071) were incubated for 45 minutes on a rocker at room temperature. It was washed 5 times for 5 minutes each with 0.2% TBST washing buffer and detected with LI-COR's Odyssey. At this time, SHPTP2 was detected using SuperSignal West Pico PLUS Chemiluminescent Substrate, and house-keeping genes were also detected.
# In the results of Table 4 below, Compounds 1-7, 13-19, and 21-26 are results in KYSE-520 cells, and the others are results in MV-4-11 cells.
# SHP2 protein [2] = target: T1, SHP2 protein; experiment: Measurement of SHP2 protein degradation in MV-4-11 cells (western blotting); assay type: cell-based; design: endogenous in cells; host or cells: MV-4-11; conditions: MV-4-11 cells, 24 hours
# Method in brief: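 SHP2 protein levels were assessed by western blotting in MV-4-11 cells after a 24 hour compound treatment. Lysates were sonicated, centrifuged, normalized by BCA assay at 562 nm, run on Bis-tris 4-12% gels, transferred to NC membrane, probed with anti-SHPTP2 (70 kDa) and anti-GAPDH (37 kDa) antibodies, and detected on LI-COR Odyssey.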
SHP2 degradation (%) 10 nM (SHP2 protein [1]) [%],SHP2 degradation (%) 100 nM (SHP2 protein [1]) [%],SHP2 degradation (%) 1000 nM (SHP2 protein [1]) [%],SHP2 degradation (%) 10 nM (SHP2 protein [2]) [%],SHP2 degradation (%) 100 nM (SHP2 protein [2]) [%],SHP2 degradation (%) 1000 nM (SHP2 protein [2]) [%],SMILES
23.3,81.8,94.3,,,,"Cc1ncsc1-c1ccc(CNC(=O)[C@@H]2C[C@@H](O)CN2C(=O)[C@@H](NC(=O)C2(F)CC2)C(C)(C)C)c(OCCCCN2CCC(C(=O)Nc3cccc(Sc4cnc(N5CCC(C)(CN)CC5)cn4)c3Cl)CC2)c1 [Example 2, N-(3-((5-(4-(aminomethyl)-4-methylpiperidin-1-yl)pyrazin-2-yl)thio)-2-chlorophenyl)-1-(4-(2-(((2S,4R)-1-((S)-2-(1-fluorocyclopropane-1-carboxamido)-3,3-dimethylbutanoyl)-4-hydroxypyrrolidine-2-carboxamido)methyl)-5-(4-methylthiazol-5-yl)phenoxy)butyl)piperidine-4-carboxamide]"
4.1,60.7,90.7,,,,"Cc1ncsc1-c1ccc(CNC(=O)[C@@H]2C[C@@H](O)CN2C(=O)[C@@H](NC(=O)C2(F)CC2)C(C)(C)C)c(OCCCCCCCCN2CCC(C(=O)Nc3cccc(Sc4cnc(N5CCC(C)(CN)CC5)cn4)c3Cl)CC2)c1 [Example 4, N-(3-((5-(4-(aminomethyl)-4-methylpiperidin-1-yl)pyrazin-2-yl)thio)-2-chlorophenyl)-1-(8-(2-(((2S,4R)-1-((S)-2-(1-fluorocyclopropane-1-carboxamido)-3,3-dimethylbutanoyl)-4-hydroxypyrrolidine-2-carboxamido)methyl)-5-(4-methylthiazol-5-yl)phenoxy)octyl)piperidine-4-carboxamide]"
,,,4,95,97,"Cc1ncsc1-c1ccc(CNC(=O)[C@@H]2C[C@@H](O)CN2C(=O)[C@@H](NC(=O)C2(F)CC2)C(C)(C)C)c(OCCNC(=O)c2cnc(N3CCC(CCCC(=O)Nc4cccc(Sc5cnc(N6CCC(C)(CN)CC6)cn5)c4Cl)CC3)nc2)c1 [Example 89, 2-(4-(4-((3-((5-(4-(aminomethyl)-4-methylpiperidin-1-yl)pyrazin-2-yl)thio)-2-chlorophenyl)amino)-4-oxobutyl)piperidin-1-yl)-N-(2-(2-(((2S,4R)-1-((S)-2-(1-fluorocyclopropane-1-carboxamido)-3,3-dimethylbutanoyl)-4-hydroxypyrrolidine-2-carboxamido)methyl)-5-(4-methylthiazol-5-yl)phenoxy)ethyl)pyrimidine-5-carboxamide]"
,,,6,97,98,"Cc1ncsc1-c1ccc(CNC(=O)[C@@H]2C[C@@H](O)CN2C(=O)[C@@H](NC(=O)C2(F)CC2)C(C)(C)C)c(OCCOc2cnc(N3CCC(CCCC(=O)Nc4cccc(Sc5cnc(N6CCC(C)(CN)CC6)cn5)c4Cl)CC3)nc2)c1 [Example 90, (2S,4R)—N-(2-(2-((2-(4-(4-((3-((5-(4-(aminomethyl)-4-methylpiperidin-1-yl)pyrazin-2-yl)thio)-2-chlorophenyl)amino)-4-oxobutyl)piperidin-1-yl)pyrimidin-5-yl)oxy)ethoxy)-4-(4-methylthiazol-5-yl)benzyl)-1-((S)-2-(1-fluorocyclopropane-1-carboxamido)-3,3-dimethylbutanoyl)-4-hydroxypyrrolidine-2-carboxamide]"

# Further lines, the compound ahead of its results:
SMILES,SHP2 degradation (%) 10 nM (SHP2 protein [1]) [%],SHP2 degradation (%) 100 nM (SHP2 protein [1]) [%],SHP2 degradation (%) 1000 nM (SHP2 protein [1]) [%],SHP2 degradation (%) 10 nM (SHP2 protein [2]) [%],SHP2 degradation (%) 100 nM (SHP2 protein [2]) [%],SHP2 degradation (%) 1000 nM (SHP2 protein [2]) [%]
"Cc1ncsc1-c1ccc(CNC(=O)[C@@H]2C[C@@H](O)CN2C(=O)[C@@H](NC(=O)C2(F)CC2)C(C)(C)C)c(OCCCN2CCC(C(=O)Nc3cccc(Sc4cnc(N5CCC(C)(CN)CC5)cn4)c3Cl)CC2)c1 [Example 1, N-(3-((5-(4-(aminomethyl)-4-methylpiperidin-1-yl)pyrazin-2-yl)thio)-2-chlorophenyl)-1-(3-(2-(((2S,4R)-1-((S)-2-(1-fluorocyclopropane-1-carboxamido)-3,3-dimethylbutanoyl)-4-hydroxypyrrolidine-2-carboxamido)methyl)-5-(4-methylthiazol-5-yl)phenoxy)propyl)piperidine-4-carboxamide]",28.9,64.5,74.5,,,
"Cc1ncsc1-c1ccc(CNC(=O)[C@@H]2C[C@@H](O)CN2C(=O)[C@@H](NC(=O)C2(F)CC2)C(C)(C)C)c(OCCCCCCN2CCC(C(=O)Nc3cccc(Sc4cnc(N5CCC(C)(CN)CC5)cn4)c3Cl)CC2)c1 [Example 3, N-(3-((5-(4-(aminomethyl)-4-methylpiperidin-1-yl)pyrazin-2-yl)thio)-2-chlorophenyl)-1-(6-(2-(((2S,4R)-1-((S)-2-(1-fluorocyclopropane-1-carboxamido)-3,3-dimethylbutanoyl)-4-hydroxypyrrolidine-2-carboxamido)methyl)-5-(4-methylthiazol-5-yl)phenoxy)hexyl)piperidine-4-carboxamide]",−15.6,48.8,84.0,,,
"Cc1ncsc1-c1ccc(CNC(=O)[C@@H]2C[C@@H](O)CN2C(=O)[C@@H](NC(=O)C2(F)CC2)C(C)(C)C)c(OC2CC3(CCN(c4ccc(C(=O)Nc5cccc(Sc6cnc(N7CCC(C)(CN)CC7)cn6)c5Cl)nn4)CC3)C2)c1 [Example 88, N-(3-((5-(4-(aminomethyl)-4-methylpiperidin-1-yl)pyrazin-2-yl)thio)-2-chlorophenyl)-6-(2-(2-(((2S,4R)-1-((S)-2-(1-fluorocyclopropane-1-carboxamido)-3,3-dimethylbutanoyl)-4-hydroxypyrrolidine-2-carboxamido)methyl)-5-(4-methylthiazol-5-yl)phenoxy)-7-azaspiro[3.5]nonan-7-yl)pyridazine-3-carboxamide]",,,,16.5,66.1,
